pIC50: −log10 of the molar value. Active and inactive are the calls of the source.
Legend:
[1] = biological target: E3 ubiquitin-protein ligase Mdm2 (Homo sapiens, UniProt Q00987); test: MDM2-luc reporter signal enhancers, multi-concentration potency testing, MDM2 ubiquitin-protein ligase inhibitor program, whole-cell format, luminescence detection, 384-well microplate (AID 1394); type: functional;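 note: MDM2 E3 inhibitors raise luminescence so EC50 is for signal enhancement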
[2] = biological target: T1, Rac GTPase-activating protein 1 (Homo sapiens, UniProt Q9H0H5); test: blockers of MgcRacGAP-driven Rac1 GTP hydrolysis – biochemical, ADP Hunter fluorescence, primary and confirmatory, confirmation (AID 624330); type: functional
T1 sequence (Q9H0H5 whole entry): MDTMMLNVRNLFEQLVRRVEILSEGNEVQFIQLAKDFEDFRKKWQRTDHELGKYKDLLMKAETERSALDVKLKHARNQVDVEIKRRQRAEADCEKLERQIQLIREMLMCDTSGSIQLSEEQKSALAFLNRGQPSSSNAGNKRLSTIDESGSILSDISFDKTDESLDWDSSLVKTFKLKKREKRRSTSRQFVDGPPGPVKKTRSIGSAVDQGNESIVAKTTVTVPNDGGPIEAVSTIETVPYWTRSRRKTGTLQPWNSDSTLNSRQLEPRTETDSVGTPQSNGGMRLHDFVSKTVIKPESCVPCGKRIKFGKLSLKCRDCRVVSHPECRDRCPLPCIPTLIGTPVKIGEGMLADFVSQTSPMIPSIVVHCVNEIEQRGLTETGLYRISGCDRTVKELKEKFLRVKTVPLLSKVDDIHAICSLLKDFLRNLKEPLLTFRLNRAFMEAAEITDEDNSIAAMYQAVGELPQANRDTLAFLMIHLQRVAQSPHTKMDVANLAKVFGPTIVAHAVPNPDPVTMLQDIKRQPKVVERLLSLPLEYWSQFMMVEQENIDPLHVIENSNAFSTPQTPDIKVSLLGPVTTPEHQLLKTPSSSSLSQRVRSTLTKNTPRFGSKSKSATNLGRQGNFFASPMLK

Troponin, cardiac muscle = Troponin, cardiac muscle (Homo sapiens, UniProt P19429+P45379+P63316); test: Fluorescence-based biochemical high throughput dose response assay for activators of the calcium sensitivity of cardiac Regulated Thin Filaments (RTF). [Related pubchem assays (depositor defined):AID493008, AID493018, AID504382, AID504383]; type: protein-complex assay
Protein skinhead-1 = biological target: T2, Protein skinhead-1 (Caenorhabditis elegans, UniProt P34707); type: functional
T2 sequence (P34707 whole entry): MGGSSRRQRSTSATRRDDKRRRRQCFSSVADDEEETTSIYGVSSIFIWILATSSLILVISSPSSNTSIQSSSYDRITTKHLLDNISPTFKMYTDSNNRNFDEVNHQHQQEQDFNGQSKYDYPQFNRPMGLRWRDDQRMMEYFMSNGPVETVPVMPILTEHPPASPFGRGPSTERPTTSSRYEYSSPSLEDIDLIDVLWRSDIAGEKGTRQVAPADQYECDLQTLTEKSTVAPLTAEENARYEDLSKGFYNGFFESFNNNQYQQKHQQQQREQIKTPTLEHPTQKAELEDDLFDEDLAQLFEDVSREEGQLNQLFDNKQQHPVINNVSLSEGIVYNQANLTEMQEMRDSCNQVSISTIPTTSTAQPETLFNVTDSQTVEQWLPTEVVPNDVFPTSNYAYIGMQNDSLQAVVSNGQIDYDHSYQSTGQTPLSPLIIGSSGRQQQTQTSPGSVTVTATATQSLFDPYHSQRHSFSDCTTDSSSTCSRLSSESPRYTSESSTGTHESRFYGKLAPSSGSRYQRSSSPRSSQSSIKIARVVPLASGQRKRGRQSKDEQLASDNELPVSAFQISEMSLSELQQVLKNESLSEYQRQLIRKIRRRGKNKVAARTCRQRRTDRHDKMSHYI

[3] = biological target: T3, Bifunctional protein GlmU (Mycobacterium tuberculosis, UniProt P9WMN3); test: Inhibitors of Mycobacterial Glucosamine-1-phosphate acetyl transferase (GlmU). Secondary screen.; parameters: species or system Mycobacterium tuberculosis H37Rv
T3 sequence (P9WMN3 whole entry): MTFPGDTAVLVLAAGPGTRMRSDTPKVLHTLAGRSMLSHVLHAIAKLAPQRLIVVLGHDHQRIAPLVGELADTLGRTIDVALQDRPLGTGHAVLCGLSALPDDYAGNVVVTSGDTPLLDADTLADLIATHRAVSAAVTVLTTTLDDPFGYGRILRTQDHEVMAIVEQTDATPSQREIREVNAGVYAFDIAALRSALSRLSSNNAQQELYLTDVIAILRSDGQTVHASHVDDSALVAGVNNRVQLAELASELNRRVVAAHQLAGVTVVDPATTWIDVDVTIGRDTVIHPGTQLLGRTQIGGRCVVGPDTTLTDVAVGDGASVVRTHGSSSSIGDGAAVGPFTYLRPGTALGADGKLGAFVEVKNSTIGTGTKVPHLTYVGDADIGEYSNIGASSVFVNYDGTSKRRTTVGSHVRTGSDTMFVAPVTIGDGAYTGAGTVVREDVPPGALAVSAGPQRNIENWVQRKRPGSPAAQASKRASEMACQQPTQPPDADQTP

[4] = biological target: T4, Kappa-type opioid receptor (Homo sapiens, UniProt P41145); type: functional
HEK293 [5] = test: inhibition of NOD1-driven NF-kB reporter – cell-based, luminescence, uHTS, primary screen (AID 1578); type: functional; conditions: Homo sapiens
[6] = biological target: T5, Delta-type opioid receptor (Homo sapiens, UniProt P41143); test: HTS Image-Based Screen for Agonists of the DOR Receptor. [Related pubchem assays (depositor defined):AID1777, AID1786, AID2133]; type: functional
Mu-type opioid receptor = Mu-type opioid receptor (Homo sapiens, UniProt P35372); test: HTS Image-Based Screen for Agonists of the MOR Receptor. [Related pubchem assays (depositor defined):AID1777, AID1785, AID1786, AID2133]; type: functional;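 note: imaging of beta-arrestin GFP recruitment into spots after receptor activation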
Streptococcus = test: GAS UMAA2166 growth inhibition – luminescence, BacTiterGlo, counter-screen for streptokinase expression inhibitor project, dose response (AID 1915); type: functional, organism-based;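 note: potency for reduction of bacterial viability or growth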
Beta-galactosidase [7] = biological target: T6, Beta-galactosidase (Escherichia coli, UniProt Q8VNN2); test: PubChem AID 485352; type: functional
Beta-galactosidase [8] = biological target: T6, Beta-galactosidase; type: functional
[9] = biological target: T7, Type-1 angiotensin II receptor (Homo sapiens, UniProt P30556); test: antagonism of angiotensin II type 1 receptor – cell-based, uHTS hits, selectivity assay for APJ receptor antagonist project, dose response (AID 463214); type: functional;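 note: antagonist potency against angiotensin II stimulated AT1 response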
T7 sequence (P30556 whole entry): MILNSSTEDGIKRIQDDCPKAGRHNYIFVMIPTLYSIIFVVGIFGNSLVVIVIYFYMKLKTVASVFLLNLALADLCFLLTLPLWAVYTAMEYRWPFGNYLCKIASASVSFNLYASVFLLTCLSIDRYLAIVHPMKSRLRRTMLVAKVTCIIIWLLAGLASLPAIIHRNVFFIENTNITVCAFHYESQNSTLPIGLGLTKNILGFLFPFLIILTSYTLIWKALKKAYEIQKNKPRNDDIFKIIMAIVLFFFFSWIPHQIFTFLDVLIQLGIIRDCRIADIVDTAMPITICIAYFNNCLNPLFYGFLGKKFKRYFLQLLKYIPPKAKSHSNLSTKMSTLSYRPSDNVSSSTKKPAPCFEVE

[10] = test system: Streptococcus sp. 'group A'; test: Streptococcus pyogenes SK(-)GAS viability under kanamycin – luminescence, BacTiterGlo, confirmation, counter-screen for streptokinase expression inhibitor project, dose response (AID 1900); type: functional, organism-based
HEK293 [11] = test: NOD2 signaling inhibitors in MDP-stimulated cells, cell-based, uHTS, luminescence (AID 2001); type: functional; conditions: Homo sapiens
[12] = biological target: T5, Delta-type opioid receptor; test: HTS Image-Based Screen for Antagonists of the DOR Receptor. [Related pubchem assays (depositor defined):AID1777, AID1785, AID1786, AID2133]; type: functional
HEK293 [13] = test: cells; type: functional, cell-based; conditions: Homo sapiens
[14] = biological target: T4, Kappa-type opioid receptor; type: functional; remark: listed apart in the source
HEK293 [15] = test: cells; type: functional, cell-based; conditions: Homo sapiens; remark: listed apart in the source
[16] = biological target: T8, Orexin/Hypocretin receptor type 1 (Homo sapiens, UniProt O43613); test: (§1) Fluorescence-based cell-based high throughput dose response assay for antagonists of the orexin 1 receptor (OX1R; HCRTR1). [Related pubchem assays (depositor defined):AID434989, AID435008, AID463079, AID485270, AID492963, AID492964, AID492965, AID493232, AID504717, AID504718]; type: functional
T8 sequence (O43613 whole entry): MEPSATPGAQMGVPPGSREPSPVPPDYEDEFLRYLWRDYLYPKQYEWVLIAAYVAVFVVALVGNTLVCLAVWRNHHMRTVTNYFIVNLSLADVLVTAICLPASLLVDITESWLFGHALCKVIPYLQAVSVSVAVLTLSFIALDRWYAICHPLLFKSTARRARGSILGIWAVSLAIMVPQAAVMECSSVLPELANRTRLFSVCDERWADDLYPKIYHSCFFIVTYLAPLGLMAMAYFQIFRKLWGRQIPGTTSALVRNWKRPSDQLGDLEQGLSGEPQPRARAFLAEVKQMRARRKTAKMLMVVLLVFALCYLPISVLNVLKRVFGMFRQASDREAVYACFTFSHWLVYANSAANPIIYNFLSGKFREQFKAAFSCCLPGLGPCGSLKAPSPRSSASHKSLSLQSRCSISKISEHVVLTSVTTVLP

[17] = (§2) Counterscreen for antagonists of the orexin 1 receptor (OX1R; HCRTR1): Fluorescence-based cell-based high throughput dose response assay to identify antagonists of the parental CHO cell line. [Related pubchem assays (depositor defined):AID434989, AID435008, AID463079, AID485270, AID492963, AID492964, AID492965, AID493232, AID504699, AID504701]; type: functional
[18] = biological target: T8, Orexin/Hypocretin receptor type 1; test: as §1, with “Homogeneous Time Resolved Fluorescence (HTRF)-based” for “Fluorescence-based”; type: functional
CHO-K1 = test: as §2, with “Homogeneous time resolved fluorescence (HTRF)-based” for “Fluorescence-based”, “cell-based” for “cell-based high throughput”, “CHO-K1” for “CHO”; type: functional; conditions: Cricetulus griseus;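 note: potency for inhibition of ATP-stimulated IP1 production as antagonists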
[19] = biological target: T9, G-protein coupled receptor 35 (Homo sapiens, UniProt Q9HC97); test: SAR analysis of Antagonists of the GPR35 Receptor using an Image-Based Assay - Set 6. [Related pubchem assays (depositor defined):AID2013, AID2026]; type: functional
Cannabinoid receptor 2 [20] = biological target: T10, Cannabinoid receptor 2 (Homo sapiens, UniProt P34972); test: SAR analysis of antagonists of the Cannabinoid Receptor 2 using an Image-Based Assay - Set 3. [Related pubchem assays (depositor defined):AID2013, AID2026]; type: functional
Cannabinoid receptor 1 [21] = biological target: T11, Cannabinoid receptor 1 (Homo sapiens, UniProt P21554); test: SAR analysis of antagonists of the Cannabinoid Receptor 1 using an Image-Based Assay - Set 4. [Related pubchem assays (depositor defined):AID2013, AID2026]; type: functional
Cannabinoid receptor 2 [22] = biological target: T10, Cannabinoid receptor 2; test: SAR analysis of agonists of the Cannabinoid Receptor 2 using an Image-Based Assay - Set 3. [Related pubchem assays (depositor defined):AID2013, AID2026]; type: functional
[23] = biological target: G-protein coupled receptor 55 (Homo sapiens, UniProt Q9Y2T6); test: SAR Analysis of Selective Antagonists of GPR55 using an Image-Based Assay - Set 4. [Related pubchem assays (depositor defined):AID2013, AID2026]; type: functional;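 note: antagonism of response to 5 µM lysophosphatidylinositol agonist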
Cannabinoid receptor 1 [24] = biological target: T11, Cannabinoid receptor 1; test: SAR analysis of agonists of the Cannabinoid Receptor 1 using an Image-Based Assay - Set 4. [Related pubchem assays (depositor defined):AID2013, AID2026]; type: functional
[25] = biological target: T9, G-protein coupled receptor 35; test: SAR analysis of Agonists of the GPR35 Receptor using an Image-Based Assay - Set 4. [Related pubchem assays (depositor defined):AID2013, AID2026]; type: functional

T6 sequence (Q8VNN2 whole entry): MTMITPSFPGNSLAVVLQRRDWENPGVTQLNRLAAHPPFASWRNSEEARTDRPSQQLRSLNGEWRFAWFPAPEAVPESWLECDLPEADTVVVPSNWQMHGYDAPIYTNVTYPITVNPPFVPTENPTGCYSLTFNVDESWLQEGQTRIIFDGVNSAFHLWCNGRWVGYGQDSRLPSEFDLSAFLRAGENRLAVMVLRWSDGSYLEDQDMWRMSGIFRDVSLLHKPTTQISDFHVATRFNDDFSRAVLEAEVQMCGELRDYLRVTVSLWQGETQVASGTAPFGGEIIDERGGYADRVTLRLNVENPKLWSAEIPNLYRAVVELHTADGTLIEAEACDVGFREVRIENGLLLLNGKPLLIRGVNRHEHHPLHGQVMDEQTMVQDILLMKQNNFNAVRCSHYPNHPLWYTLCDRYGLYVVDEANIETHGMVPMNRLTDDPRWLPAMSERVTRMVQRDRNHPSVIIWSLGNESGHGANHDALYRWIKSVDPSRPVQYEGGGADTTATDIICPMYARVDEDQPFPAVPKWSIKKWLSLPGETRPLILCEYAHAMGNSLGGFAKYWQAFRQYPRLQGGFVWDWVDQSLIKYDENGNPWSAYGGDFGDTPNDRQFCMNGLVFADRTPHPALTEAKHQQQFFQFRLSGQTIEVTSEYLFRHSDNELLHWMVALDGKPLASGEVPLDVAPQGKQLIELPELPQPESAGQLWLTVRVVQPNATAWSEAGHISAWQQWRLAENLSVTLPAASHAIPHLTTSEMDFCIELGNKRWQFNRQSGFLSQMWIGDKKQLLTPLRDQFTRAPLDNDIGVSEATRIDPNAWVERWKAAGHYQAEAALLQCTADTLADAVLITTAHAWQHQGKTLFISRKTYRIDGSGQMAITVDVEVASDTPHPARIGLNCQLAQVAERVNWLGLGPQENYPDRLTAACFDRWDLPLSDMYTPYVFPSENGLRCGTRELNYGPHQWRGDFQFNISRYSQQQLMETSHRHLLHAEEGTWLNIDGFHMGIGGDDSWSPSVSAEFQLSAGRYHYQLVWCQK
T9 sequence (Q9HC97 whole entry): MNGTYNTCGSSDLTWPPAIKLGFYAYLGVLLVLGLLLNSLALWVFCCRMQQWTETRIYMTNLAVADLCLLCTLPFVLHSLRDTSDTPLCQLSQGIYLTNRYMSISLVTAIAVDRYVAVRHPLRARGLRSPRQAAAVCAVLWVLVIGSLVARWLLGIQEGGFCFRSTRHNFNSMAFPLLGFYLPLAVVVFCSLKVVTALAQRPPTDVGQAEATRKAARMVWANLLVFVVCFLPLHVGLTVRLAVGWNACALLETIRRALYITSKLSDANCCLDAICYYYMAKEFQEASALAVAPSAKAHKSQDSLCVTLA
T5 sequence (P41143 whole entry): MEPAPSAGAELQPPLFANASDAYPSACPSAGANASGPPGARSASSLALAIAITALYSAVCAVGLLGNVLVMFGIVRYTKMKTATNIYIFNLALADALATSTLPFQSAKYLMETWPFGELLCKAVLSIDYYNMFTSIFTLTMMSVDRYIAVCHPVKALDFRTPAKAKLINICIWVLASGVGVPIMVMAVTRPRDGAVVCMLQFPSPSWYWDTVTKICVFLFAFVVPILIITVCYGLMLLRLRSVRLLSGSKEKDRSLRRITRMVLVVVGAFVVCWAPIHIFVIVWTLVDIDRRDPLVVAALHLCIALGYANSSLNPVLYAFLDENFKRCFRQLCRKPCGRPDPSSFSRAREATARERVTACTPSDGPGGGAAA
T11 sequence (P21554 whole entry): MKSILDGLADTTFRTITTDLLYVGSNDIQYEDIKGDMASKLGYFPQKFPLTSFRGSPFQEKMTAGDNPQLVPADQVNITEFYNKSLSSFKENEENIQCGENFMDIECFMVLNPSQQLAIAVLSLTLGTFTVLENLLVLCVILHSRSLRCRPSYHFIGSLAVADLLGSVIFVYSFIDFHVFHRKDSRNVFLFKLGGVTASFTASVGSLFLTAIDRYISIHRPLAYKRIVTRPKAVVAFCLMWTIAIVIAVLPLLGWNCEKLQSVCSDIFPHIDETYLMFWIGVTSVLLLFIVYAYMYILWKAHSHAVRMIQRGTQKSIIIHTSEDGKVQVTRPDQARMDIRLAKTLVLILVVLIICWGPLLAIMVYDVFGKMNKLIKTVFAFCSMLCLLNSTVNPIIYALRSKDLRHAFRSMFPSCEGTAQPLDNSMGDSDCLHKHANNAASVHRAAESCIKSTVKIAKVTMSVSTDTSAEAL
T4 sequence (P41145 whole entry): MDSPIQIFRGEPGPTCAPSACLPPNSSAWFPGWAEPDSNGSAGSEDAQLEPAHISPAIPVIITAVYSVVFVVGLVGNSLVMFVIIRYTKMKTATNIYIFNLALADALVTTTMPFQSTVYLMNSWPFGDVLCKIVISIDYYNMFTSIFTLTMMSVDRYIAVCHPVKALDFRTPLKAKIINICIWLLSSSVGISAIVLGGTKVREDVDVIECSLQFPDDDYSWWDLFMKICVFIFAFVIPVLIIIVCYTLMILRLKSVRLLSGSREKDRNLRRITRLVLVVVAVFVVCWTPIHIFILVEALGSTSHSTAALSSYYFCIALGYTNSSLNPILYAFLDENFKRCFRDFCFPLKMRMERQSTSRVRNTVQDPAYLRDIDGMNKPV
T10 sequence (P34972 whole entry): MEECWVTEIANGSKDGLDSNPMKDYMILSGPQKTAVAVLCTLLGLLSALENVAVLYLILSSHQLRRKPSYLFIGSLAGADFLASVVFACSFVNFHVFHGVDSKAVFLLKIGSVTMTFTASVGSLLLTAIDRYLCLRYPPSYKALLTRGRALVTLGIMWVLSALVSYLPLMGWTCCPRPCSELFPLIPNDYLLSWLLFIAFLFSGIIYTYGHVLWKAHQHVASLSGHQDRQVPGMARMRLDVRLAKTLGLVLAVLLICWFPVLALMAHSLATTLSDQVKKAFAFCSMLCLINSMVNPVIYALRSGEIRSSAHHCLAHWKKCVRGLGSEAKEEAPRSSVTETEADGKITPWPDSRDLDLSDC
Mu-type opioid receptor, sequence (P35372 whole entry): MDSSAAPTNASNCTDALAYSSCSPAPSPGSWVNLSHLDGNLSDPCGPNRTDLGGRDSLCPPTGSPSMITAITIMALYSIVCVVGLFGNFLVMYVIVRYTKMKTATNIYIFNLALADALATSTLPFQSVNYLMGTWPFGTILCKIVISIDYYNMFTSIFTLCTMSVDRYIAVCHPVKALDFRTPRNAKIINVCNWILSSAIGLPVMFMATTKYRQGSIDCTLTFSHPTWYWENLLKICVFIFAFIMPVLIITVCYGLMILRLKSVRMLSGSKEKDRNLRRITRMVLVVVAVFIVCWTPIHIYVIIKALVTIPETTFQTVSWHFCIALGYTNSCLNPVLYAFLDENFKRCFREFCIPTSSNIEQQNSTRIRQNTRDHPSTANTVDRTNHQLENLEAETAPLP
G-protein coupled receptor 55, sequence (Q9Y2T6 whole entry): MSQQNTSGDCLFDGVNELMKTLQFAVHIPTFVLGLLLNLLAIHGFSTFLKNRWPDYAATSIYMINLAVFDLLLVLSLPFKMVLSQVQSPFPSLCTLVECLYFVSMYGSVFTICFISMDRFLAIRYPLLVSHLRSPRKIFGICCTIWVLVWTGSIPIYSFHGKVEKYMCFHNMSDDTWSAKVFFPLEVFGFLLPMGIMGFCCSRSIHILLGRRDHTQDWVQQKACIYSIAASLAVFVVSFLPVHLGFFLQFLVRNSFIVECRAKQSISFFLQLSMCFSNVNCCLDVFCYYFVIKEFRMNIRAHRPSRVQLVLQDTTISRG
E3 ubiquitin-protein ligase Mdm2, sequence (Q00987 whole entry): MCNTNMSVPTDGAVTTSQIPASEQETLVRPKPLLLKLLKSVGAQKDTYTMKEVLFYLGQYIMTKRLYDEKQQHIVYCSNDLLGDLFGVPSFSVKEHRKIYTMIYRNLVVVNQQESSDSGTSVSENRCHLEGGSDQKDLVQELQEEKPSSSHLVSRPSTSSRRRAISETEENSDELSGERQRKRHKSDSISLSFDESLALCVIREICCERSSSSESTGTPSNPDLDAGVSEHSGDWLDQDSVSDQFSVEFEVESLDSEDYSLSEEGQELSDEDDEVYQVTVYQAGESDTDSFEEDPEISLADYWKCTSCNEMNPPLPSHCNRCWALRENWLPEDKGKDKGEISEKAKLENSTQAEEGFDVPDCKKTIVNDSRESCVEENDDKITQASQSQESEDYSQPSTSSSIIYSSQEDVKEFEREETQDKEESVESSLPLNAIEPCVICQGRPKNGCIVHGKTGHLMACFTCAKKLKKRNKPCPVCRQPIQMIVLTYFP

Structure (SMILES): CCN(CC)c1ccc(/C=C2\C(=O)c3ccc(C(=O)O)cc3C2=O)cc1
- EC50 [1]: 0.1 µM (active)
- IC50 [2]: 85.4 µM (active)
- EC50 (Troponin, cardiac muscle): 0.516 µM (active)
- IC50 (Protein skinhead-1): 23.3 µM (active)
- IC50 [3]: 37.7 µM (active)

Structure (SMILES): COc1cccc(/C=C/c2ccc3cccc(O)c3n2)c1OC
- pIC50 [4]: < 4.49
- EC50 (HEK293 [5]): > 20 µM (inactive)
- EC50 [6]: > 32 µM (inactive)
- EC50 (Mu-type opioid receptor): > 32 µM (inactive)
- EC50 (Streptococcus): 7.81 µM (active)
- EC50 (Beta-galactosidase [7]): > 40 µM (inactive)
- EC50 (Beta-galactosidase [8]): > 31.5 µM (inactive)
- IC50 [9]: 15.6 µM (active)
- EC50 [10]: 1.68 µM (active)
- IC50 (HEK293 [11]): 5.45 µM (inactive)
- IC50 [12]: > 32 µM (inactive)
- IC50 (HEK293 [13]): 10.6 µM (active)
- IC50 [14]: > 31.5 µM (inactive)
- IC50 (HEK293 [15]): > 20 µM (inactive)

Structure (SMILES): Oc1cc(/C=C/c2c(F)cccc2Cl)nc2ccccc12
- IC50 [16]: 9.6 µM (active)
- IC50 [17]: > 49.7 µM (inactive)
- IC50 [18]: 3.14 µM (active)
- IC50 (CHO-K1): > 66.2 µM (inactive)

Structure (SMILES): Cc1nc(N2CCN(C(=O)c3ccncc3)CC2)c2c3c(sc2n1)CC(C)CC3 (stereo not given)
- IC50 [19]: > 32 µM (inactive)
- IC50 (Cannabinoid receptor 2 [20]): > 32 µM (inactive)
- IC50 (Cannabinoid receptor 1 [21]): 13.3 µM (inactive)
- EC50 (Cannabinoid receptor 2 [22]): > 32 µM (inactive)
- IC50 [23]: > 32 µM (inactive)
- EC50 (Cannabinoid receptor 1 [24]): > 32 µM (inactive)
- EC50 [25]: > 32 µM (inactive)

Source: ChEMBL document CHEMBL1201862, “PubChem BioAssay data set” (2004)
